Values of other authors, collected in patent US20250339408A1, “TREATMENT AND PREVENTION OF BASAL CELL CARCINOMA WITH TOPICAL COMPOSITION COMPRISING PATIDEGIB” (Sol-Gel Technologies Ltd., priority 2023, published 2025).

System: patients with Gorlin Syndrome
Settings: oral drugs; with and without PTCH1 mutation; cited from earlier work

Structure (SMILES) | Effect in patients with Gorlin Syndrome (in words)
CS(=O)(=O)c1ccc(C(=O)Nc2ccc(Cl)c(-c3ccccn3)c2)c(Cl)c1 [Vismodegib] | known to effect patients with Gorlin Syndrome, both with and without PTCH1 mutation
Cc1c(C(=O)Nc2ccc(N3C[C@@H](C)O[C@@H](C)C3)nc2)cccc1-c1ccc(OC(F)(F)F)cc1 [Sonidegib] | known to effect patients with Gorlin Syndrome, both with and without PTCH1 mutation
